Columns and labels:
[1] = tested on: mRNA of Type I collagen gene in renal glomerulus; assay: mRNA of Type I collagen gene in renal glomerulus of anti-Thy-1 antibody-administered rats (improvement of chronic renal failure); type: in vivo, rat; details: orally for 7 days in 0.5% aqueous methylcellulose solution
Experimental: IgG was purified from an ascites-lyophilized powder (CEDARLANE, lot No. 05122) containing an anti-rat CD90 (Thy1.1) monoclonal antibody using MAbTrap kit (Amersham Biosciences, catalogue No. 17-1128-01).
6 ml of a binding buffer was added to 3 ml of ascites to sufficiently recover it, and this was passed through a 0.22 μm filter. The resulting solution was applied to a pre-bufferized column, and the column was then washed with 10 ml of a binding buffer. Thereafter, the column was eluted with 5 ml of an elution buffer. From washing, each 1 ml was fractionated, and the protein concentration of each fraction was measured using bovine serum albumin as a standard. A single peak was confirmed from an elution pattern, and an IgG fraction was dialyzed against a physiological saline overnight at 4° C. The protein concentration of the resulting anti-Thy-1 antibody (IgG) was calculated.
The present compounds represented by the compound numbers (28a) (hereinafter, referred to as the present compound (28a)), the present compound represented by a compound number (30a) (hereinafter, referred to as the present compound (30a)), the present compound represented by a compound number (33a) (hereinafter, referred to as the present compound (33a)), the present compound represented by a compound number (10e) (hereinafter, referred to as the present compound (10e)), the present compound represented by a compound number (18e) (hereinafter referred to as the present compound (18e)), the present compound represented by a compound number (31e) (hereinafter, referred to as the present compound (31e)) and a corn oil which is a medium were weighed. These were mixed using a mortar and a pestle to prepare a […]. Using four 7-week old male Wistar rats [Nippon Charles River] per group, 60 μg/ml of the anti-Thy-1 antibody (IgG) or a physiological saline was intravenously injected via a tail vein at 5 ml/kg. […] A dose of the present compound was 15 mg/kg/day.
On the next day of final administration, a rat reared as described in the above (2) was slaughtered by collection of whole blood, and kidneys were isolated. A whole RNA was separated from the cortex of the isolated kidney using RNeasy Mini Kit (QIAGEN, catalogue No. 74106). To 5 μl (50 ng) of the separated whole RNA were added 1 μl of 20 μM oligo dT and 4 μl of RNase-free distilled water. After the mixture was incubated at 65° C. for 5 minutes, it was immediately ice-cooled. To 10 μl of the solution were added 4 μl of 5× buffer, 2.4 μl of MgCl2, 1 μl of 10 mM dNTP, 1 μl of RNasin, 1 μl of Improm II and 0.6 μl of RNase-free distilled water (all available from Promega), and a reverse transcription reaction was performed under the condition of at 25° C. for 5 minutes, at 42° C. for 1 hour, and at 70° C. for 15 minutes.
Into 5 μl of the reverse transcription reaction solution were mixed each 2 μl of each 1.25 pmol/μl of primers represented by SEQ ID NOS: 3 and 4, 1.25 μl of a probe (FAM-ctcgccttca tgcgcctgct agc-TAMRA) for detecting DNA of a Type I collagen gene represented by SEQ ID No:5, each 0.25 μl of Rodent GAPDH primers, 0.25 μl of a Rodent GAPDH probe, 12.5 μl of TaqMan Universal PCR Master Mix (all available from Applied Biosystem) and 1.5 μl of sterilized water in a well of Optical 96-Well Reaction Plate (Applied Biosystem, catalogue No. N801-0560). As a standard, in place of 5 μl of the reverse transcription reaction solution, each 5 μl of 500, 250, 125, 62.5, 31.25, 15.625 ng/μl rat renal cortex cDNA which had been prepared in advance was used. Thereafter, using Gene Amp 7900 (Applied Biosystem), PCR was performed under the condition of at 50° C. for 5 minutes, and 40 cycles in which one cycle is at 95° C. for 15 seconds and at 60° C. for 1 minute. […]

[2] = tested on: ability of TGF-β to promote transcription of a Type I collagen gene; assay: Inhibition of the ability of TGF-β to promote transcription of a Type I collagen gene (COL-Luc reporter gene assay); type: cell-based; details: final concentration 1 μM; TGF-β added; normal human fetal skin fibroblast transfected with COL-Luc; 40 hours; read-out: Inhibition percentage
Experimental: 1×10^8 cells of a normal human fetal skin fibroblast (Clontech, catalogue No. CC-2509) were cultured at 37° C. overnight under 5% CO2 atmosphere. After the cultured cells were washed with a sodium phosphate buffer (hereinafter, referred to as PBS) twice, 3 ml of PBS was added thereto and the cells were scraped away the wall of a vessel using a cell scraper (Nalgen, catalogue No. 179693). The scraped cells were collected by centrifugation (1,500 rpm, 4° C., 15 min), and these were suspended in 20 ml of PBS and centrifuged again. To the resulting precipitates were added 11 ml of Solution 2 and 4.8 μl of pronase of DNA Extraction Kit (Stratagene, catalogue No. 200600). After shaken at 60° C. for 1 hour, the resulting mixture was allowed to stand in ice for 10 minutes. Then, 4 ml of Solution 3 of the kit was added to the mixture. After mixed, the mixture was allowed to stand in ice for 5 minutes and then centrifuged (3,000 rpm, 4° C., 15 min) to recover a supernatant. To the recovered supernatant was added 2 μl of RNase per 1 ml of the supernatant and the mixture was allowed to stand at 37° C. for 15 minutes. To the mixture was added 2-fold volume of ethanol. After mixed, a white thread-like substance (genomic DNA) appeared and the substance was recovered. The recovered genomic DNA was washed with 70% ethanol and then air-dried. The air-dried genomic DNA was dissolved in 500 μl of 10 mM Tris-HCl, 1 mM EDTA (pH 8.0) (hereinafter, referred to as TE).
The resulting genomic DNA solution (the amount equivalent to 1 μg of genomic DNA), each 1 μl (10 pmol/μl) of an oligonucleotide consisting of the nucleotide sequence represented by SEQ ID No:1 and an oligonucleotide consisting of the nucleotide sequence represented by SEQ ID No:2, 29 μL of distilled water, 5 μl of the buffer attached to TaKaRa LA Taq (TAKARA SHUZO, catalogue No. RR002A), 5 μL of a Mg^2+ solution, 5 μL of a dNTP mixture and 0.5 μl of TaKaRa LA Taq (TAKARA SHUZO, catalogue No. RR002A) were mixed. After the resulting mixed solution was incubated at 94° C. for 5 minutes, the mixed solution was subjected to 30 cycles, in which one cycle consists of incubation at 94° C. for 1 minute, at 60° C. for 1 minute and then at 72° C. for 1 minute. The mixed solution was electrophoresed on a 2% agarose gel to recover about 0.5 kb of a DNA. The recovered DNA was treated with phenol/chloroform and then precipitated with ethanol to recover the DNA. The resulting DNA was dissolved in ultrapure water. To this solution were added 2.5 μl of NheI and 2.5 μl of HindIII, and then incubated at 37° C. for 3 hours. Then, the solution was electrophoresed on a 2% agarose gel to recover about 3.5 kb of a DNA. The recovered DNA was precipitated with ethanol to recover again the DNA (hereinafter, referred to as the collagen promoter DNA).
On the other hand, the vector pGL3 (Promega, catalogue No. E1751) having the nucleotide sequence encoding firefly luciferase was digested with NheI and HindIII, and then subjected to agarose gel electrophoresis as described above to recover about 5 kb of a DNA. The recovered DNA was precipitated with ethanol to recover the DNA again. To the recovered DNA were added 44 μl of distilled water, 5 μl of Buffer attached to Alkaline Phosphatase (TAKARA SHUZO, catalogue No. 2120A) and 1 μl of Alkaline Phosphatase (TAKARA SHUZO, catalogue No. 2120A). The mixed solution was incubated at 65° C. for 30 minutes. Then, the mixed solution was treated with phenol/chloroform twice, and precipitated with ethanol to recover the DNA (hereinafter referred to as the Luc vector DNA). Then, after about 20 ng of the collagen promoter DNA and about 20 ng of the Luc vector DNA were mixed, the same amount of a DNA Ligation kit Ver2 enzyme solution was added and this was incubated overnight at 16° C. To the mixed solution was added Escherichia coli 5Hdα (TOYOBO, catalogue No. DNA-903), this was allowed to stand in ice for 30 minutes, and then incubated at 42° C. for 45 seconds. […]

Row | Structure (SMILES) | ability to improve chronic renal failure ([1]; Example 6, anti-Thy-1 antibody rats) | mRNA of collagen gene ([1]; Table 5 (Example 6), Type I collagen amount/GAPDH amount, renal cortex, anti-Thy-1 antibody +, 10 Wistar rats per group, control group 2.1, normal group 1.0, test results p < 0.01) | inhibition at 1 µM [2] [%]
1 | Cc1cc(O)c(C(=O)C=Cc2cccc(OCC(=O)O)c2)c(=O)n1C [Compound No. (37a), 4-hydroxy-3-[3-[3-(carboxymethoxy)phenyl]-1-oxo-2-propenyl]-1,6-dimethyl-2(1H)-pyridinone] | has the ability to improve chronic renal failure | 1.5 | 
2 | Cc1cc(O)c(C(=O)C=Cc2cccc(OCC#N)c2)c(=O)n1C [Compound No. (11a), 4-hydroxy-3-[3-[3-(cyanomethoxy)phenyl]-1-oxo-2-propenyl]-1,6-dimethyl-2(1H)-pyridinone] |  |  | ≥ 70
3 | COCCOC(=O)Nc1cccc(C=CC(=O)c2c(O)c3ccccc3[nH]c2=O)c1 [Compound No. (21e), 4-hydroxy-3-[3-[3-[(2-methoxyethoxy)carbonylamino]phenyl]-1-oxo-2-propenyl]-2(1H)-quinolinone] |  |  | ≥ 70
4 | COCCNC(=O)Nc1cccc(C=CC(=O)c2c(O)cc(C)[nH]c2=O)c1 [Compound No. (22a), 4-hydroxy-3-[3-[3-[(2-methoxyethyl)aminocarbonylamino]phenyl]-1-oxo-2-propenyl]-6-methyl-2(1H)-pyridinone] |  |  | ≥ 70
5 | Cc1cc(O)c(C(=O)C=Cc2ccc(OCC#N)cc2)c(=O)[nH]1 [Compound No. (13a), 4-hydroxy-3-[3-[4-(cyanomethoxy)phenyl]-1-oxo-2-propenyl]-6-methyl-2(1H)-pyridinone] |  |  | ≥ 70
6 | N#CCNC(=O)c1cccc(C=CC(=O)c2c(O)c3ccccc3[nH]c2=O)c1 [Compound No. (33e), 4-hydroxy-3-[3-[3-[[(cyanomethyl)amino]carbonyl]phenyl]-1-oxo-2-propenyl]-2(1H)-quinolinone] |  |  | ≥ 70
7 | N#CCOc1ccc(C=CC(=O)c2c(O)c3ccccc3[nH]c2=O)cc1 [Compound No. (13e), 4-hydroxy-3-[3-[4-(cyanomethoxy)phenyl]-1-oxo-2-propenyl]-2(1H)-quinolinone] |  |  | ≥ 70
8 | Cc1cc(O)c(C(=O)C=Cc2cccc(C(=O)NCC#N)c2)c(=O)[nH]1 [Compound No. (35a), 4-hydroxy-3-[3-[3-[(cyanomethyl)aminocarbonyl]phenyl]-1-oxo-2-propenyl]-6-methyl-2(1H)-pyridinone] |  |  | ≥ 70
9 | CS(=O)(=O)NC(=O)c1cccc(C=CC(=O)c2c(O)c3ccccc3[nH]c2=O)c1 [Compound No. (26e), 4-hydroxy-3-[3-[3-[(methanesulfonyl)aminocarbonyl]phenyl]-1-oxo-2-propenyl]-2(1H)-quinolinone] |  |  | ≥ 70
10 | COCC(=O)Nc1cccc(C=CC(=O)c2c(O)cc(C)[nH]c2=O)c1 [Compound No. (18a), 4-hydroxy-3-[3-[3-(methoxyacetylamino)phenyl]-1-oxo-2-propenyl]-6-methyl-2(1H)-pyridinone] |  |  | ≥ 70
11 | COC(=O)COc1cccc(C=CC(=O)c2c(O)cc(C)[nH]c2=O)c1 [Compound No. (7a), 4-hydroxy-3-[3-[3-[(methoxycarbonyl)methoxy]phenyl]-1-oxo-2-propenyl]-6-methyl-2(1H)-pyridinone] |  |  | ≥ 70
12 | COCC(=O)Nc1ccc(C=CC(=O)c2c(O)cc(C)[nH]c2=O)cc1 [Compound No. (20a), 4-hydroxy-3-[3-[4-(methoxyacetylamino)phenyl]-1-oxo-2-propenyl]-6-methyl-2(1H)-pyridinone] |  |  | ≥ 70
13 | COC(=O)CNC(=O)c1cccc(C=CC(=O)c2c(O)c3ccccc3[nH]c2=O)c1 [Compound No. (28e), 4-hydroxy-3-[3-[3-[[(methoxycarbonylmethyl)amino]carbonyl]phenyl]-1-oxo-2-propenyl]-2(1H)-quinolinone] |  |  | ≥ 70
14 | Cn1c(=O)c(C(=O)C=Cc2cccc(OCC#N)c2)c(O)c2ccccc21 [Compound No. (11e), 1-methyl-4-hydroxy-3-[3-[3-(cyanomethoxy)phenyl]-1-oxo-2-propenyl]-2(1H)-quinolinone] |  |  | ≥ 70
